Experimental data reported in article PMC6670186, “Novel prodrugs of decitabine with greater metabolic stability and less toxicity” (Clinical Epigenetics, 2019).
Marks after values point to notes of the source that are not given here.

How the values were obtained:
[1] = Partition coefficient (log P), shake-flask method, n-octanol/PBS; assay type: physicochemical
Description: The method employed HPLC with the following conditions: ZORBAX Bonus C18 column (4.6 × 150 mm, 3 μm); eluent: A = 10 mM HCO2NH4, B = acetonitrile, A:B = 50:50 (an isocratic mode for 5 min), and A:B = 99:1–20:80 (a gradient mode for 15 min); flow rate = 1.0 mL/min; oven temperature = 40 °C; detection = 240 nm.

[2] = Stability in phosphate-buffered saline; assay type: physicochemical; conditions: for t1/2 in PBS: PBS solution at 37°C; for Stability t1/2 in PBS: PBS 37 °C, 20** + x h, 20 h = t1/2 in PBS of DAC, x = OR compound
Description: Five microliters of DAC derivatives (1.0 mg/100 μL of DMSO) was added to 200 μL of a stirred PBS solution at 37 °C. The mixture was stirred continuously for 1 day. The remaining of the starting derivatives was assayed using the HPLC analytical conditions as described above.

[3] = Chemical stability in a protic solvent; assay type: physicochemical
[4] = tested on: Cytidine deaminase (CDA); set-up: method as in J. Clinical Investigation, 1974, 53(3), 922-931; conditions: substrate of CDA; ref J. Clinical Investigation, 1974, 53(3), 922-931; cited from earlier work
[5] = tested on: exogenous UCHL1 promoter and OSR2 promoter CpG island; assay: Quantitative methylation-specific PCR of marker genes; assay type: cell-based, Human; conditions: qMSP
Description: One microgram of EcoRV-digested genomic DNA was treated with sodium bisulfite as described previously. Bisulfite-treated DNA was resuspended in 40 μL of TE-buffer (10 mM Tris, pH 8.0; 1 mM EDTA, pH 8.0), and 1 μL was used for quantitative methylation-specific PCR (qMSP) using primers specific to methylated and unmethylated target loci, including MetLuc-UCHL1 promoter, OSR2 promoter, and UCHL1 promoter (Additional file 1: Table S1). As a fully unmethylated DNA control, genomic DNA from peripheral blood cells of a healthy person was amplified twice using a GenomiPhi DNA amplification kit (GE Healthcare Life Sciences; Little Chalfont, UK). As a fully methylated DNA control, the fully unmethylated DNA was methylated by SssI methylase (New England Biolabs; Beverly, MA).

[6] = target: T1, human recombinant cytidine deaminase (Homo sapiens, UniProt P32320); assay: Stability in the presence of cytidine deaminase; assay type: in vitro ADME; conditions: for Enzymatic stability, retained: cytidine deaminase, after 2 h
T1 construct: His; purchased AT Gen Co. Ltd; Seoul, Korea
T1 sequence (P32320 whole entry): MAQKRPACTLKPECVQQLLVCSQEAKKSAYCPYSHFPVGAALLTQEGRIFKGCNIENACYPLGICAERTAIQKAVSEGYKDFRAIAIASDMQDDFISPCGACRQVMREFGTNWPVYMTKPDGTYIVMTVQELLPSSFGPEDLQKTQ
Excerpt: The remaining of the starting derivatives were continuously assayed using HPLC analytical conditions as described above.

[7] = Pharmacokinetics in mice, intraperitoneal; assay type: in vivo; conditions: for AUC 0 → lim, DAC / AUC 0 → lim, Total / AUC 0 → lim, OR compound: plasma; for AUC 0 → lim, DAC: DAC (metabolite for OR compounds), equimolar dose; for AUC 0 → lim, Total: OR compound + metabolite DAC; for AUC 0 → lim, OR compound: dose equimolar to 0.20 mg/kg DAC
Description: Six-week-old female ICR mice were intraperitoneally injected with 0.20 mg/kg of DAC, 0.29 mg/kg of OR-2003, 0.32 mg/kg of OR-2009, 0.30 mg/kg of OR-2100, and 0.31 mg/kg of OR-2102. The doses were decided so that equivalent amounts of molar concentration would be administered. The blood plasma was collected before and at 5, 15, 30, 45, 60, 90, and 120 min after the treatment. All experimental procedures were approved by the Committee of National Cancer Center.

## CC[Si](CC)(OC[C@H]1O[C@@H](n2cnc(N)nc2=O)C[C@@H]1O)C(C)C [Ethyl, Ethyl, i-Propyl]
[1]
  Log PO/PBS: 2.56
[2]
  t1/2 in PBS: > 24 h

## CC[Si](CC)(OCC1OC(n2cnc(N)nc2=O)CC1O)C1CCCC1 (stereo not drawn) [Ethyl, Ethyl, c-Pentyl]
[1]
  Log PO/PBS: 3.10
[2]
  t1/2 in PBS: > 24 h

## CC[Si](C)(C)OC[C@H]1O[C@@H](n2cnc(N)nc2=O)C[C@@H]1O [Methyl, Methyl, Ethyl]
[2]
  t1/2 in PBS: 0.9 h

## C[Si](C)(C)OC[C@H]1O[C@@H](n2cnc(N)nc2=O)C[C@@H]1O [Methyl, Methyl, Methyl]
[2]
  t1/2 in PBS: Unstable
[3]
  stability in a protic solvent: unstable

## Nc1nc(=O)n([C@@H]2O[C@H](CO)[C@@H](O)[C@H]2O)cc1F [5-fluorocytidine]
[4]
  Michaelis constant: 30 µM

## C[Si](C)(OCC1OC(n2cnc(N)nc2=O)CC1O)C1CCCC1 (stereo not drawn) [Methyl, Methyl, c-Pentyl]
[1]
  Log PO/PBS: 2.16
[2]
  t1/2 in PBS: 15 h

## CC(C)(C)[Si](C)(C)OC[C@H]1O[C@@H](n2cnc(N)nc2=O)C[C@@H]1O [Methyl, Methyl, t-Butyl]
[1]
  Log PO/PBS: 1.91
[2]
  t1/2 in PBS: > 24 h
[3]
  stability in a protic solvent: stable

## Nc1ncn([C@H]2C[C@H](O)[C@@H](CO[Si](Cc3ccccc3)(Cc3ccccc3)Cc3ccccc3)O2)c(=O)n1 [Benzyl, Benzyl, Benzyl]
[1]
  Log PO/PBS: 4.69
[2]
  t1/2 in PBS: > 24 h

## Nc1ncn([C@H]2C[C@H](OP(=O)(O)OC[C@H]3O[C@@H](n4cnc5c(=O)[nH]c(N)nc54)C[C@@H]3O)[C@@H](CO)O2)c(=O)n1 [guadecitabine, reference compound]
[5]
  dose with strongest effect of DNA demethylation: 1.0 µM
[5]; 0.0 to 10.0 μM
  DNA demethylation of exogenous UCHL1 promoter and OSR2 promoter CpG island: weaker demethylation effect than OR-2003 and OR-2100

## C[Si](C)(OC[C@H]1O[C@@H](n2cnc(N)nc2=O)C[C@@H]1O)C1CCCCC1 [OR-2009]
[1]
  Log PO/PBS: 2.52
[2]
  half-life (time to release DAC): ≥ 14 h
  Stability t1/2 in PBS: 20** + 14 h
  t1/2 in PBS: 14 h
[6]
  Enzymatic stability, retained: Retain 75% after 2 h
[7]
  total AUC of OR compound and metabolite DAC compared with DAC: larger AUCs than that of DAC
  AUC 0 → lim, DAC: 0.238 µM·h
  AUC 0 → lim, Total: 0.552 µM·h
  AUC 0 → lim, OR compound: 0.314 µM·h

## Nc1ncn([C@@H]2O[C@H](CO)[C@@H](O)[C@H]2O)c(=O)n1 [AZA, 5-azacytidine]
[4]
  Michaelis constant: 430 µM

## CCCCCCCC[Si](C)(C)OCC1OC(n2cnc(N)nc2=O)CC1O (stereo not drawn) [Methyl, Methyl, n-Octyl]
[2]
  t1/2 in PBS: 1.5 h

## CCCC[Si](C)(C)OC[C@H]1O[C@@H](n2cnc(N)nc2=O)C[C@@H]1O [Methyl, Methyl, n-Butyl]
[1]
  Log PO/PBS: 4.56
[2]
  t1/2 in PBS: 1.3 h

## C[Si](C)(Cc1ccccc1)OC[C@H]1O[C@@H](n2cnc(N)nc2=O)C[C@@H]1O [Methyl, Methyl, Benzyl]
[1]
  Log PO/PBS: 1.73
[2]
  t1/2 in PBS: 2.5 h
[6]
  enzymatic stability in the presence of CDA: gradually degraded by CDA

## CCC[Si](CCC)(CCC)OC[C@H]1O[C@@H](n2cnc(N)nc2=O)C[C@@H]1O [n-Propyl, n-Propyl, n-Propyl]
[1]
  Log PO/PBS: 5.20
[2]
  t1/2 in PBS: 22 h

## CC(C)[Si](C)(C)OC[C@H]1O[C@@H](n2cnc(N)nc2=O)C[C@@H]1O [Methyl, Methyl, i-Propyl]
[1]
  Log PO/PBS: 1.48
[2]
  t1/2 in PBS: 12 h
[6]
  enzymatic stability in the presence of CDA: stable in the presence of CDA

## CC[Si](C)(CC)OC[C@H]1O[C@@H](n2cnc(N)nc2=O)C[C@@H]1O [Ethyl, Ethyl, Methyl]
[1]
  Log PO/PBS: 1.49
[2]
  t1/2 in PBS: 4 h
[6]
  enzymatic stability in the presence of CDA: stable in the presence of CDA

## CCC[Si](CC)(CC)OC[C@H]1O[C@@H](n2cnc(N)nc2=O)C[C@@H]1O [OR-2102]
[1]
  Log PO/PBS: 2.54
[2]
  half-life (time to release DAC): ≥ 14 h
  Stability t1/2 in PBS: 20** + 19 h
  t1/2 in PBS: 19 h
[6]
  enzymatic stability in the presence of CDA: gradually degraded by CDA
  Enzymatic stability, retained: Retain 46% after 2 h
[7]
  AUC 0 → lim, DAC: 0.285 µM·h
  AUC 0 → lim, Total: 0.366 µM·h
  AUC 0 → lim, OR compound: 0.081 µM·h

## Nc1ccn([C@H]2C[C@H](O)[C@@H](CO)O2)c(=O)n1 [2'-deoxycytidine]
[4]
  Michaelis constant: 26 µM
